Source: paper PMC5864073, “A D-enantiomer of the antimicrobial peptide GL13K evades antimicrobial resistance in the Gram positive bacteria Enterococcus faecalis and Streptococcus gordonii” (PLoS ONE, 2018)
Where a SMILES comes first, the peptide text is derived from it.

Columns and labels:
[1] = system: E. faecalis OG1RF (wild-type); test: Minimal inhibitory concentration, broth dilution; assay type: cell-based, Enterococcus faecalis; set-up: key to MIC (mg/L): >: Mean MIC is above the tested concentration range (this value was set at 200 mg/L for data analysis); conditions: THB, 20 h, 37°C
Experimental: (§1) The minimal inhibitory concentration (MIC) assays were performed essentially as described for cationic AMPs, but using streptococcal growth-friendly THB without the addition of blood or serum components. A working stock of 1-5x10^5 CFU/ml in 90 or 100 μl THB was added to 10 or 20 μl of a 2-fold serial peptide dilution in 0.01% acetic acid and incubated for 20 h at 37°C in 96-well polypropylene plates. The OD at 600 nm (OD600) was determined in a Synergy HT plate reader (BioTek, Winooski, VT). Control wells for growth without peptide and growth medium without bacteria were included. Bacterial cell numbers in the inoculum were verified by colony count.

[2] = system: E. faecalis OG1RF ebsG; test: Minimal inhibitory concentration, broth dilution; assay type: cell-based, Enterococcus faecalis; set-up: key: >: Mean MIC is above the tested concentration range (this value was set at 200 mg/L for data analysis); conditions: THB, 20 h, 37°C, symbol
Experimental: as §1

[3] = system: E. faecalis OG1RF::pMSP7551+nisin; test: Minimal inhibitory concentration, broth dilution; assay type: cell-based, Enterococcus faecalis; set-up: key: >: Mean MIC is above the tested concentration range (this value was set at 200 mg/L for data analysis); conditions: E. faecalis OG1RF::pMSP7551+nisin (induced); THB, 20 h, 37°C; symbol
Experimental: as §1

[4] = system: E. faecalis OG1RF::pMSP7551; test: Minimal inhibitory concentration, broth dilution; assay type: cell-based, Enterococcus faecalis; set-up: key: >: Mean MIC is above the tested concentration range (this value was set at 200 mg/L for data analysis); conditions: E. faecalis OG1RF::pMSP7551 (un-induced); THB, 20 h, 37°C; symbol
Experimental: as §1

[5] = system: E. faecalis TX5128 (gelE-, SprE-); test: Minimal inhibitory concentration, broth dilution; assay type: cell-based, Enterococcus faecalis; set-up: key: >: Mean MIC is above the tested concentration range (this value was set at 200 mg/L for data analysis); conditions: THB, 20 h, 37°C
Experimental: as §1

[6] = system: vancomycin-resistant E. faecalis V583; test: Minimal inhibitory concentration, broth dilution; assay type: cell-based, Enterococcus faecalis; set-up: key: >: Mean MIC is above the tested concentration range (this value was set at 200 mg/L for data analysis); conditions: THB, 20 h, 37°C, symbol
Experimental: as §1

[7] = system: S. gordonii DL1 (wild-type); test: Minimal inhibitory concentration, broth dilution; assay type: cell-based, Streptococcus gordonii; set-up: key: >: Mean MIC is above the tested concentration range (this value was set at 200 mg/L for data analysis); conditions: THB, 20 h, 37°C
Experimental: as §1

[8] = system: conditioned supernatant of protease-deficient E. faecalis (TX5128); test: Proteolysis of peptide by conditioned culture supernatant (P. aeruginosa Xen41 bioassay); assay type: in vitro ADME, Enterococcus faecalis; conditions: conditioned sterile-filtered supernatant of protease-deficient E. faecalis TX5128, peptide 32 mg/L, 2 h, 37°C; bioluminescence read-out after 15 min; three independent experiments
Experimental: (§2) To test proteolytic processing of GL13K peptides, overnight bacterial cultures were centrifuged (5 min, 13,000 g) and the conditioned supernatants were sterile-filtered (0.22 μm, Corning). Filtered supernatant (16.8 μl) was incubated with 3.2 μl (3.2 μg) peptide at 37°C for 2 h to allow bacterial proteases in the supernatant to process the peptide. To determine residual peptide activity, 70 μl of 10 mM sodium phosphate buffer, pH 7.4 was added to each sample and then supplemented with 10 μl (10^8 CFU) of bioluminescent Pseudomonas aeruginosa Xen41 (Caliper Lifesciences; now Perkin Elmer, MA) that had been washed three times in 0.9% NaCl (final maximal peptide concentration 32 mg/L). Viability of the indicator bacteria was determined after 15 min incubation at 37°C by determining bioluminescence in a Synergy HT plate reader. The luminescence detected in the absence of added peptide was used as a measure of 100% proteolysis.
(§3) Fig 1 Relative proteolysis of GL13K peptides. (A): Wild-type (OG1RF) or the protease-negative strain (TX5128) of E. faecalis was cultured on THA containing 3% gelatin. Gelatinase activity was visualized as a turbid halo around the bacterial colonies; (B): L-GL13K (L) or D-GL13K (D) (32 mg/L) was incubated with conditioned supernatant of wild-type (OG1RF) or the protease-negative strain (TX5128) of E. faecalis for 2 h. Residual peptide activity was determined by adding bioluminescent P. aeruginosa Xen41 to the mixture. Bioluminescence from surviving bacteria was used as a measure of proteolytic degradation of each peptide and expressed relative to bacterial bioluminescence in the absence of peptides (equivalent to 100% proteolysis). Data are shown as mean ± SEM from three independent experiments and were analyzed by paired t-test for each strain. n.s., not significant.

[9] = system: conditioned supernatant of wild-type E. faecalis (OG1RF); test: as above; assay type: in vitro ADME, Enterococcus faecalis; conditions: conditioned sterile-filtered supernatant of E. faecalis OG1RF, peptide 32 mg/L, 2 h, 37°C; bioluminescence read-out after 15 min; three independent experiments
Experimental: as §2, §3

[10] = system: E. faecalis dltA mutant (TX5427); test: Selection for peptide resistance, serial MIC assays; assay type: cell-based, Enterococcus faecalis; conditions: serial passage at 0.5 x MIC, L-GL13K after two rounds, D-GL13K after seven rounds, three experiments
Experimental: To investigate potential resistance development against the GL13K peptides, dilutions of the peptides were prepared and incubated as described for the MIC assay. The next day (day 0), the MIC was recorded and the culture in the well with the highest peptide concentration that allowed growth (i.e 0.5 x MIC) was diluted 1:100 and used as an inoculum for the next round of selection in a new MIC assay and so forth until a stable plateau of resistance was reached.
Fig 4 Development of resistance in E. faecalis. MICs for L-GL13K (circles) and D-GL13K (squares) were recorded on consecutive days using E. faecalis OG1RF (wild-type) (open symbols) (D-enantiomer only) and dltA (closed symbols). The MIC for each day is expressed relative to the starting MIC (day 0). Data from three experiments are shown as mean ± SEM.

## CC[C@H](C)[C@H](NC(=O)[C@H](CCCCN)NC(=O)CN)C(=O)N[C@H](C(=O)N[C@@H](CCCCN)C(=O)N[C@@H](CC(C)C)C(=O)N[C@@H](CCCCN)C(=O)N[C@@H](C)C(=O)N[C@@H](CO)C(=O)N[C@@H](CC(C)C)C(=O)N[C@@H](CCCCN)C(=O)N[C@@H](CC(C)C)C(=O)N[C@@H](CC(C)C)C(N)=O)[C@@H](C)CC [L-GL13K, Gly-Lys-Ile-Ile-Lys-Leu-Lys-Ala-Ser-Leu-Lys-Leu-Leu-NH2] (H-GKIIKLKASLKLL-NH2; N-terminus assumed)
[1]; 1-5x10^5 CFU/ml, OD600, mean ± SEM
  MIC: > 512 mg/L
[1]; OD600, symbol
  MIC (mg/L): >
[2]
  MIC (mg/L): >
[3]
  MIC (mg/L): >
[4]
  MIC (mg/L): >
[5]; OD600, mean ± SEM
  MIC (mg/L): did not inhibit growth
[5]; symbol
  MIC (mg/L): >
[6]
  MIC (mg/L): >
[7]; OD600, mean ± SEM
  MIC (mg/L): resistant
[7]; symbol
  MIC (mg/L): >
[8]
  Proteolysis of peptide (loss of activity against bioluminescent P. aeruginosa Xen41): did not show significant proteolysis
[9]
  Proteolysis of peptide (loss of activity against bioluminescent P. aeruginosa Xen41): almost complete proteolysis
[10]
  Increase of MIC relative to starting MIC (day 0): 8 fold
